Key:
recombinant PRDX1 = assay: Click labeling assay; assay type: binding, human; settings: recombinant PRDX1, streptavidin HRP blot; competed by Celastrol
Protocol: The click labeling method used in this paper refers to these researches.[49],[50] Alkynylated compounds were incubated with recombinant proteins for 1 h in buffer C (20 mM Hepes, […]). For some PRDX1 wild type samples, unalkynylated compounds were pre-incubated with proteins for 0.5 h before incubating with alkynylated compounds. The work concentration of proteins is 1 µM. After compounds incubation, the protein samples were subjected to click reaction procedures through terminal alkynyl group as previously described.[49],[50] Protein samples were resolved with SDS-PAGE and blotted with streptavidin HRP (1:10000, Thermo Scientific) and anti-PRDX1 antibody (8499, 1:1000, Cell Signaling Technology).

PRDX1 = target: T1, PRDX1 (Homo sapiens, UniProt Q06830); assay: Trx-TrxR-NADPH coupling peroxiredoxin activity assay, PRDX1; assay type: biochemical; settings: recombinant PRDX1, 1.5 h incubation, mean ± SEM, triplicate; read-out: IC50 against the peroxidase activity of PRDX1
T1 sequence (Q06830 1-199): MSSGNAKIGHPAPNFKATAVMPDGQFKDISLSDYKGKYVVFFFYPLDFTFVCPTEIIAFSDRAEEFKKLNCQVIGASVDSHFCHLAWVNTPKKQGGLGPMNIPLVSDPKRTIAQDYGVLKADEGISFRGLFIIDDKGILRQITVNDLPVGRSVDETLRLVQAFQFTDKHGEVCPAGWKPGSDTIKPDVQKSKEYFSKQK

C#CCOCCOCCNC(=O)[C@]1(C)CC[C@]2(C)CC[C@]3(C)C4=CC=C5C(=CC(=O)C(O)=C5C)[C@]4(C)CC[C@@]3(C)[C@@H]2C1 [alkynylated Celastrol, (2R,4aS,6aS,12bR,14aS,14bR)-10-hydroxy-2,4a,6a,9,12b,14a-hexamethyl-11-oxo-N-(2-(2-(prop-2-yn-1-yloxy)ethoxy)ethyl)-1,2,3,4,4a,5,6,6a,11,12b,13,14,14a,14b-tetradecahydropicene-2-carboxamide]
melting point: 64.7 to 68 °C
covalent binding to PRDX1 by click labeling (in words) (recombinant PRDX1): covalently bound to PRDX1

COC(=O)[C@H](Cc1ccccc1)NC(=O)N[C@]1(C)CC[C@]2(C)CC[C@]3(C)C4=CC=C5C(=CC(=O)C(O)=C5C)[C@]4(C)CC[C@@]3(C)[C@@H]2C1 [19-266, Methyl (((2R,4aS,6aS,12bR,14aS,14bR)-10-hydroxy-2,4a,6a,9,12b,14a-hexamethyl-11-oxo-1,2,3,4,4a,5,6,6a,11,12b,13,14,14a,14b-tetradecahydropicen-2-yl)carbamoyl)-L-phenylalaninate]
IC50 (PRDX1): 280 ± 40 nM
melting point: 151.9 to 155.7 °C

C#CCCOC(=O)[C@@H](C)NC(=O)N[C@]1(C)CC[C@]2(C)CC[C@]3(C)C4=CC=C5C(=CC(=O)C(O)=C5C)[C@]4(C)CC[C@@]3(C)[C@@H]2C1
melting point: 123.4 to 127.8 °C

Source: PMC9895061 (Signal Transduction and Targeted Therapy, 2023)
